Consider one molecule from publication PMC3593252 (ACS medicinal chemistry letters, 2013).

The test system of one data set is U937 xenograft. As to the kind of experiment: U937 xenograft model in vivo antitumor assay.
Data set [1] deals with class IIa HDACs (MDA-MB-231 cell lysate). The conditions noted are these: class IIa-specific substrate, NA: not active at 10 μM.
Data set [2] concerns acetylated tubulin, acetylated histone H3, acetylated histone H4 and p21 in MDA-MB-231 cell lines. As to the kind of experiment: Western blot analysis in MDA-MB-231 cell line. It is filed as cell-based. For orientation: In western blotting, separated proteins are transferred to a membrane and probed.

As to `CCCC(CCC)C(=O)N[C@H](COc1ccc(/C=C/C(=O)NO)cc1OC)Cc1c[nH]c2ccccc12` [Compound 17a], the “toxic signs in liver and spleen” value in the data set with U937 xenograft (U937 xenograft mice, once daily by oral gavage for three weeks) was “no evident toxic signs in liver and spleen”. Further, in the data set with U937 xenograft (mouse, in vivo, po), the body weight loss entry is “no significant body weight loss”. Also, the “IC50 class IIa cell lysate” value in data set [1] is “no obvious inhibition”. Besides, the “effect on acetylated tubulin level” value in data set [2] (1 μM, 3 h and 24 h, MDA-MB-231, compared with SAHA) was “almost no effect”. Moreover, the “effect on histone H4 acetylation with time” value in data set [2] (1 μM, 3 h vs 24 h, MDA-MB-231) is “maintained even increased”. For the same molecule, the “effects on the levels of histone acetylation and p21 expression” value in data set [2] (1 μM, MDA-MB-231, especially after 24 h of treatment) was “comparable even superior to SAHA”. For the same molecule, in data set [2] (MDA-MB-231 cell line), the “cell permeability (by monitoring intracellular acetylation levels)” value is reported as “cell permeable”.
